The record followed here is publication PMC9786284, “Synthesis and Antiproliferative Effect of Halogenated Coumarin Derivatives” (Molecules, 2022).

Usually CC50 stands for the concentration giving 50% cytotoxicity.

Like-named read-outs stand apart in the source and are kept apart here.

Common to all, as to format: cell-based
One data set can be described thus: MTT cell viability assay. The settings on record: human, MTT, 24 h, concentration required to inhibit cell proliferation by 50%, mean ± SD. The procedure:
(§1) The cytotoxic effect of coumarins 2a–k was tested on several cancer and normal cell lines: lung cancer cell line (SK-MES-1), thyroid cancer cell lines (K-1; B-CPAP ant TPC-1), lung fibroblast (MRC-5) and thyroid normal cell line (Nthy-ori-3-1) by MTT (3-[4,5-dimethylthiazol-2-yl]-2,5 diphenyltetrazolium bromide) assay.
(§2) The papillary thyroid carcinoma (PTC)-derived cell lines (TPC-1 and B-CPAP) were kindly provided by Dr. Fusco (Medical School, University Federico II of Naples, Naples, Italy). K-1 PTC-derived cell line and non-tumorigenic thyroid Nthy-ori-3-1 cell line were purchased from Health Protection Agency Culture Collections. The PTC-derived cell lines were maintained in DMEM/F12 (Gibco-BRL. Life Technologies, Milan, Italy)] supplemented with 10% fetal bovine serum (Gibco-BRL) at 37 °C in humidified 5% CO2. SK-MES-1 and MRC-5 were purchased from American Type Culture Collection (ATCC) and were maintained in Mem-E medium, supplemented with 10% fetal bovine serum, 100 units/mL penicillin G, and 100 μg/mL streptomycin (Gibco-BRL) at 37 °C in humidified 5% CO2.
(§3) The effect of test compounds on the viability of cells was detected by MTT assay. The thyroid cells (7.5 × 10^3 cells/mL), SK-MES-1, and MRC-5 (8 × 10^4 cells/mL) were seeded into a 96-well plate and allowed to adhere for 16 h to culture plates before the addition of the compounds.
(§4) Then, compounds were added at different concentrations (0.8–100 μM), and cells were further incubated for 24 h. Cells with no treatment were used as a negative control. After incubation, cells were treated with MTT solution for 3 h at 37 °C. Then, the MTT solution was removed, and 150 µL of DMSO was added to the wells. The absorbances were measured at 570 nm using a TECAN microplate reader (Infinite 200, Tecan, Salzburg, Austria). Viability data were reported as % of control (untreated cells) for each cell line.
A general note: Tetrazolium assays rely on reduction of a dye to a coloured formazan, in cell work by metabolically active cells.

Data set [1] relates to B-CPAP thyroid cancer cell line. As to the kind of experiment: MTT cell viability assay. The method, then:
as §1, §2, §3, §4

Data set [2] deals with K-1 thyroid cancer cell line. As to the kind of experiment: MTT cell viability assay. The method, then: as §1, §2, §3, §4
The subject of data set [3] is SK-MES-1 lung cancer cell line. Briefly: MTT cell viability assay. The method, then: as §1, §2, §3, §4
Data set [4] relates to TPC-1 thyroid cancer cell line. As to the kind of experiment: MTT cell viability assay. The procedure: as §1, §2, §3, §4
A further data set concerns MRC-5 lung fibroblast. As to the kind of experiment: MTT cell viability assay. The method, then:
as §1, §2, §3, §4

For data set [5], the system named is Nthy-ori-3-1 thyroid normal cell line. Briefly: MTT cell viability assay. The procedure:
as §1, §2, §3, §4

Where [6] appears, read: Nthy-ori-3-1 normal thyroid cells, Nthy-ori-3-1.
The mark [7] stands for this setting: Homo sapiens, BCPAP, B-CPAP, MTT, 24 h, concentration required to inhibit cell proliferation by 50%, mean ± SD, read-out: CC50.
The mark [8] stands for this setting: K-1, MTT, 24 h, concentration required to inhibit cell proliferation by 50%, mean ± SD, read-out: CC50.
The mark [9] stands for this setting: Homo sapiens, SK-MES-1, MTT, 24 h, concentration required to inhibit cell proliferation by 50%, mean ± SD, read-out: CC50.
[10] abbreviates: Homo sapiens, TPC1, TPC-1, MTT, 24 h, concentration required to inhibit cell proliferation by 50%, mean ± SD, read-out: CC50.

In the case of `N#Cc1cc2cc(F)ccc2oc1=O` [2a, 6-Fluoro-2-oxo-2H-chromene-3-carbonitrile], the CC50 at 24 h in the data set “MTT cell viability assay” (MRC-5 lung fibroblasts, MRC-5) was more than 100 µM; in “MTT cell viability assay” (setting [6]), more than 100 µM. The CC50 in data set [1] (setting [7]), in data set [2] (setting [8]), in data set [3] (setting [9]) and in data set [4] (setting [10]) was more than 100 µM throughout.

Turning to `N#Cc1cc2cc(Cl)ccc2oc1=O` [2c, 6-Chloro-2-oxo-2H-chromene-3-carbonitrile], the CC50 at 24 h in “MTT cell viability assay” (MRC-5 lung fibroblasts, MRC-5) was more than 100 µM; in “MTT cell viability assay” (setting [6]) it was more than 100 µM. In addition, the cytotoxic concentration (CC50) in data set [1] (setting [7]), in data set [2] (setting [8]), in data set [3] (setting [9]) and in data set [4] (setting [10]) was more than 100 µM each time.

For `CCOC(=O)c1cc2cc(Br)ccc2oc1=O` [2d, Ethyl 6-bromo-2-oxo-2H-chromene-3-carboxylate], the CC50 at 24 h is more than 100 µM in the data set “MTT cell viability assay” (MRC-5 lung fibroblasts, MRC-5) and more than 100 µM in “MTT cell viability assay” (setting [6]). The CC50 in data set [1] (setting [7]), in data set [2] (setting [8]), in data set [3] (setting [9]) and in data set [4] (setting [10]) was more than 100 µM throughout.

With `N#Cc1cc2cc(Br)ccc2oc1=O` [2e, 6-Bromo-2-oxo-2H-chromene-3-carbonitrile], the CC50 at 24 h was more than 100 µM in the data set “MTT cell viability assay” (MRC-5 lung fibroblasts, MRC-5) and more than 100 µM in the data set “MTT cell viability assay” (setting [6]). Also, the CC50 in data set [1] (setting [7]), in data set [2] (setting [8]), in data set [3] (setting [9]) and in data set [4] (setting [10]) was more than 100 µM each time.

Turning to `CS(=O)(=O)c1cc2cc(Br)ccc2oc1=O` [2f, 6-Bromo-3-(methylsulfonyl)-2H-chromen-2-one], the CC50 at 24 h in the data set “MTT cell viability assay” (MRC-5 lung fibroblasts, MRC-5) was more than 100 µM; in the data set “MTT cell viability assay” (setting [6]), more than 100 µM. For the same compound, the CC50 in data set [1] (setting [7]), in data set [2] (setting [8]), in data set [3] (setting [9]) and in data set [4] (setting [10]) was more than 100 µM each time.

As to `CCOC(=O)c1cc2cc(Br)cc(Br)c2oc1=O` [2g, Ethyl 6,8-dibromo-2-oxo-2H-chromene-3-carboxylate], the CC50 at 24 h in “MTT cell viability assay” (MRC-5 lung fibroblasts, MRC-5) is more than 100 µM; in the data set “MTT cell viability assay” (setting [6]), more than 100 µM. The CC50 in data set [1] (setting [7]), in data set [2] (setting [8]), in data set [3] (setting [9]) and in data set [4] (setting [10]) was more than 100 µM in each case.

Regarding `CCOC(=O)c1cc2cc(I)cc(I)c2oc1=O` [2i, Ethyl 6,8-diiodo-2-oxo-2H-chromene-3-carboxylate], the CC50 at 24 h in “MTT cell viability assay” (MRC-5 lung fibroblasts, MRC-5) is more than 100 µM; in “MTT cell viability assay” (setting [6]) it was more than 100 µM. In addition, the CC50 in data set [1] (setting [7]), in data set [2] (setting [8]), in data set [3] (setting [9]) and in data set [4] (setting [10]) was more than 100 µM throughout.

Turning to `O=C(O)c1cc2cc(I)cc(I)c2oc1=O` [2j, 6,8-diiodo-2-oxo-2H-chromene-3-carboxylic Acid], the CC50 at 24 h is more than 100 µM in “MTT cell viability assay” (MRC-5 lung fibroblasts, MRC-5) and more than 100 µM in “MTT cell viability assay” (setting [6]). Besides, the CC50 in data set [1] (setting [7]), in data set [2] (setting [8]), in data set [3] (setting [9]) and in data set [4] (setting [10]) was more than 100 µM each time.

Take `CC[C@@]1(O)C(=O)OCc2c1cc1n(c2=O)Cc2cc3ccccc3nc2-1` [Camptothecin, reference compound]: the CC50 at 24 h in “MTT cell viability assay” (MRC-5 lung fibroblasts, MRC-5) came out at 0.1 ± 0.03 µM; in the data set “MTT cell viability assay” (setting [6]), 0.01 ± 0.02 µM. For the same compound, the CC50 in data set [1] (setting [7]) turned out to be 0.03 µM; in data set [3] (setting [9]), 0.017 ± 0.003 µM; in data set [4] (setting [10]) it was 0.01 ± 0.02 µM.

For the compound “Ethyl 6-fluoro-2-oxo-2H-chromene-3-carboxylate [2b]”, the CC50 (in data set [1]; in data set [2]; in the data set on MRC-5 lung fibroblast; in data set [5]; in data set [3]; in data set [4]) was more than 100 µM each time.
